Experimental data taken from the supplement of paper PMC10307832.

How the values were obtained:
Experiment in all cases: relative viability (nuclei count vs DMSO), 5 days (fraction); higher = more cells survive
[1] = test system: NCI-H2405
Summary of the method: (§1)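 Lung cancer cell lines were pin-tool dosed in 1536-well plates on the day after seeding, with either a lone drug or a fixed anchor-drug dose plus five library-drug doses (not always all listed) in √10 steps. Nuclei were counted on 4× images after 5 days. Relative viability is the ratio of treated-well to vehicle-well nuclei counts, with each value a median of duplicate plates.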

[2] = test system: LU99A
Summary of the method: as §1

[3] = test system: NCI-H3122
Summary of the method: as §1

[4] = test system: NCI-H1666
Summary of the method: as §1

[5] = test system: HCC-15
Summary of the method: as §1

[6] = test system: NCI-H358
Summary of the method: as §1

[7] = test system: NCI-H1975
Summary of the method: as §1

[8] = test system: HARA
Summary of the method: as §1

[9] = test system: NCI-H2228
Summary of the method: as §1

[10] = test system: NCI-H1623
Summary of the method: as §1

[11] = test system: NCI-H2347
Summary of the method: as §1

[12] = test system: NCI-H1793
Summary of the method: as §1

[13] = test system: NCI-H460
Summary of the method: as §1

[14] = test system: LXF-289
Summary of the method: as §1

[15] = test system: PC-3 [JPC-3]
Summary of the method: as §1

[16] = test system: HCC-366
Summary of the method: as §1

[17] = test system: NCI-H1944
Summary of the method: as §1

[18] = test system: NCI-H838
Summary of the method: as §1

[19] = test system: SW 1573
Summary of the method: as §1

[20] = test system: NCI-H650
Summary of the method: as §1

[21] = test system: NCI-H1734
Summary of the method: as §1

[22] = test system: NCI-H661
Summary of the method: as §1

[23] = test system: IA-LM
Summary of the method: as §1

[24] = test system: NCI-H1792
Summary of the method: as §1

[25] = test system: NCI-H1703
Summary of the method: as §1

## Nc1cccc2c1CN(C1CCC(=O)NC1=O)C2=O (stereo unspecified) [Lenalidomide] + Cc1cc(Nc2cc(N3CCN(C)CC3)nc(Sc3ccc(NC(=O)C4CC4)cc3)n2)n[nH]1 [Tozasertib] (partner 0.1 µM)
[1]; first compound 0.253 µM
  relative viability: 0.738
[1]; first compound 0.8 µM
  relative viability: 0.766
[1]; first compound 2.53 µM
  relative viability: 0.778
[1]; first compound 8 µM
  relative viability: 0.78
[2]; first compound 0.253 µM
  relative viability: 0.32
[2]; first compound 0.8 µM
  relative viability: 0.284
[2]; first compound 2.53 µM
  relative viability: 0.29
[2]; first compound 8 µM
  relative viability: 0.276
[3]; first compound 0.253 µM
  relative viability: 0.39
[3]; first compound 0.8 µM
  relative viability: 0.416
[3]; first compound 2.53 µM
  relative viability: 0.406
[3]; first compound 8 µM
  relative viability: 0.522
[4]; first compound 0.253 µM
  relative viability: 0.585
[4]; first compound 2.53 µM
  relative viability: 0.655
[4]; first compound 8 µM
  relative viability: 0.653
[5]; first compound 0.253 µM
  relative viability: 0.352
[5]; first compound 0.8 µM
  relative viability: 0.431
[5]; first compound 2.53 µM
  relative viability: 0.446
[5]; first compound 8 µM
  relative viability: 0.496
[6]; first compound 0.253 µM
  relative viability: 0.12
[6]; first compound 0.8 µM
  relative viability: 0.107
[6]; first compound 2.53 µM
  relative viability: 0.103
[6]; first compound 8 µM
  relative viability: 0.0989
[7]; first compound 0.253 µM
  relative viability: 0.886
[7]; first compound 0.8 µM
  relative viability: 0.755
[7]; first compound 2.53 µM
  relative viability: 0.844
[7]; first compound 8 µM
  relative viability: 0.849
[8]; first compound 0.253 µM
  relative viability: 0.0944
[8]; first compound 2.53 µM
  relative viability: 0.133
[8]; first compound 8 µM
  relative viability: 0.103
[9]; first compound 0.253 µM
  relative viability: 0.288
[9]; first compound 0.8 µM
  relative viability: 0.338
[9]; first compound 2.53 µM
  relative viability: 0.283
[9]; first compound 8 µM
  relative viability: 0.345
[10]; first compound 0.253 µM
  relative viability: 0.427
[10]; first compound 0.8 µM
  relative viability: 0.36
[10]; first compound 2.53 µM
  relative viability: 0.43
[10]; first compound 8 µM
  relative viability: 0.496
[11]; first compound 0.253 µM
  relative viability: 0.633
[11]; first compound 0.8 µM
  relative viability: 0.414
[11]; first compound 2.53 µM
  relative viability: 0.643
[11]; first compound 8 µM
  relative viability: 0.599
[12]; first compound 0.253 µM
  relative viability: 0.356
[12]; first compound 2.53 µM
  relative viability: 0.383
[12]; first compound 8 µM
  relative viability: 0.349
[13]; first compound 0.253 µM
  relative viability: 0.393
[13]; first compound 0.8 µM
  relative viability: 0.396
[13]; first compound 2.53 µM
  relative viability: 0.49
[13]; first compound 8 µM
  relative viability: 0.587
[14]; first compound 0.253 µM
  relative viability: 0.206
[14]; first compound 0.8 µM
  relative viability: 0.191
[14]; first compound 2.53 µM
  relative viability: 0.25
[14]; first compound 8 µM
  relative viability: 0.229
[15]; first compound 0.253 µM
  relative viability: 0.909
[15]; first compound 0.8 µM
  relative viability: 0.899
[15]; first compound 2.53 µM
  relative viability: 1.03
[15]; first compound 8 µM
  relative viability: 0.955
[16]; first compound 0.253 µM
  relative viability: 0.14
[16]; first compound 0.8 µM
  relative viability: 0.128
[16]; first compound 2.53 µM
  relative viability: 0.154
[16]; first compound 8 µM
  relative viability: 0.131
[17]; first compound 0.253 µM
  relative viability: 0.234
[17]; first compound 0.8 µM
  relative viability: 0.278
[17]; first compound 2.53 µM
  relative viability: 0.285
[17]; first compound 8 µM
  relative viability: 0.232
[18]; first compound 0.253 µM
  relative viability: 0.322
[18]; first compound 0.8 µM
  relative viability: 0.28
[18]; first compound 2.53 µM
  relative viability: 0.317
[18]; first compound 8 µM
  relative viability: 0.298
[19]; first compound 0.253 µM
  relative viability: 0.159
[19]; first compound 0.8 µM
  relative viability: 0.193
[19]; first compound 2.53 µM
  relative viability: 0.276
[19]; first compound 8 µM
  relative viability: 0.198
[20]; first compound 0.253 µM
  relative viability: 0.795
[20]; first compound 2.53 µM
  relative viability: 0.869
[20]; first compound 8 µM
  relative viability: 0.714
[21]; first compound 0.253 µM
  relative viability: 0.312
[21]; first compound 0.8 µM
  relative viability: 0.271
[21]; first compound 2.53 µM
  relative viability: 0.232
[21]; first compound 8 µM
  relative viability: 0.238
[22]; first compound 0.253 µM
  relative viability: 0.379
[22]; first compound 0.8 µM
  relative viability: 0.368
[22]; first compound 2.53 µM
  relative viability: 0.335
[22]; first compound 8 µM
  relative viability: 0.374

## Nc1cccc2c1CN(C1CCC(=O)NC1=O)C2=O (stereo unspecified) [Lenalidomide] + O=C(c1cc(Cc2n[nH]c(=O)c3ccccc23)ccc1F)N1CCN(C(=O)C2CC2)CC1 [Olaparib] (partner 8 µM)
[1]; first compound 0.253 µM
  relative viability: 0.866
[1]; first compound 0.8 µM
  relative viability: 0.877
[1]; first compound 2.53 µM
  relative viability: 0.879
[1]; first compound 8 µM
  relative viability: 0.86
[2]; first compound 0.253 µM
  relative viability: 0.261
[2]; first compound 0.8 µM
  relative viability: 0.283
[2]; first compound 2.53 µM
  relative viability: 0.243
[2]; first compound 8 µM
  relative viability: 0.246
[3]; first compound 0.253 µM
  relative viability: 0.596
[3]; first compound 0.8 µM
  relative viability: 0.579
[3]; first compound 2.53 µM
  relative viability: 0.623
[3]; first compound 8 µM
  relative viability: 0.745
[4]; first compound 0.253 µM
  relative viability: 0.781
[4]; first compound 0.8 µM
  relative viability: 0.717
[4]; first compound 2.53 µM
  relative viability: 0.776
[4]; first compound 8 µM
  relative viability: 0.759
[5]; first compound 0.253 µM
  relative viability: 0.686
[5]; first compound 0.8 µM
  relative viability: 0.728
[5]; first compound 2.53 µM
  relative viability: 0.819
[5]; first compound 8 µM
  relative viability: 0.706
[6]; first compound 0.8 µM
  relative viability: 0.607
[6]; first compound 2.53 µM
  relative viability: 0.652
[6]; first compound 8 µM
  relative viability: 0.665
[7]; first compound 0.253 µM
  relative viability: 0.912
[7]; first compound 0.8 µM
  relative viability: 0.694
[7]; first compound 2.53 µM
  relative viability: 0.876
[7]; first compound 8 µM
  relative viability: 0.995
[8]; first compound 0.253 µM
  relative viability: 0.925
[8]; first compound 2.53 µM
  relative viability: 0.804
[8]; first compound 8 µM
  relative viability: 1.01
[9]; first compound 0.253 µM
  relative viability: 0.544
[9]; first compound 0.8 µM
  relative viability: 0.502
[9]; first compound 2.53 µM
  relative viability: 0.753
[9]; first compound 8 µM
  relative viability: 0.583
[23]; first compound 0.253 µM
  relative viability: 0.874
[23]; first compound 0.8 µM
  relative viability: 0.799
[23]; first compound 2.53 µM
  relative viability: 0.777
[23]; first compound 8 µM
  relative viability: 0.728
[24]; first compound 0.253 µM
  relative viability: 0.609
[24]; first compound 0.8 µM
  relative viability: 0.378
[24]; first compound 2.53 µM
  relative viability: 0.588
[24]; first compound 8 µM
  relative viability: 0.485
[11]; first compound 0.253 µM
  relative viability: 0.62
[11]; first compound 0.8 µM
  relative viability: 0.567
[11]; first compound 2.53 µM
  relative viability: 0.579
[11]; first compound 8 µM
  relative viability: 0.509
[12]; first compound 0.253 µM
  relative viability: 0.863
[12]; first compound 2.53 µM
  relative viability: 1.07
[12]; first compound 8 µM
  relative viability: 0.539
[25]; first compound 0.253 µM
  relative viability: 0.398
[25]; first compound 0.8 µM
  relative viability: 0.521
[25]; first compound 2.53 µM
  relative viability: 0.478
[25]; first compound 8 µM
  relative viability: 0.433
[13]; first compound 0.253 µM
  relative viability: 0.394
[13]; first compound 0.8 µM
  relative viability: 0.397
[13]; first compound 2.53 µM
  relative viability: 0.438
[13]; first compound 8 µM
  relative viability: 0.374
[14]; first compound 0.253 µM
  relative viability: 1.04
[14]; first compound 0.8 µM
  relative viability: 1.17
[14]; first compound 2.53 µM
  relative viability: 1.24
[14]; first compound 8 µM
  relative viability: 1.16
[15]; first compound 0.253 µM
  relative viability: 1.12
[15]; first compound 0.8 µM
  relative viability: 1.1
[15]; first compound 2.53 µM
  relative viability: 1.32
[15]; first compound 8 µM
  relative viability: 1.38
[16]; first compound 0.253 µM
  relative viability: 0.328
[16]; first compound 0.8 µM
  relative viability: 0.309
[16]; first compound 2.53 µM
  relative viability: 0.373
[16]; first compound 8 µM
  relative viability: 0.394
[17]; first compound 0.253 µM
  relative viability: 0.43
[17]; first compound 2.53 µM
  relative viability: 0.443
[17]; first compound 8 µM
  relative viability: 0.415
[18]; first compound 0.253 µM
  relative viability: 0.75
[18]; first compound 0.8 µM
  relative viability: 0.774
[18]; first compound 2.53 µM
  relative viability: 0.781
[18]; first compound 8 µM
  relative viability: 0.79
[19]; first compound 0.253 µM
  relative viability: 0.492
[19]; first compound 0.8 µM
  relative viability: 0.545
[19]; first compound 2.53 µM
  relative viability: 0.468
[19]; first compound 8 µM
  relative viability: 0.606
[20]; first compound 0.253 µM
  relative viability: 0.384
[20]; first compound 0.8 µM
  relative viability: 0.294
[20]; first compound 2.53 µM
  relative viability: 0.544
[20]; first compound 8 µM
  relative viability: 0.369
[21]; first compound 0.253 µM
  relative viability: 0.305
[21]; first compound 0.8 µM
  relative viability: 0.582
[21]; first compound 2.53 µM
  relative viability: 0.651
[21]; first compound 8 µM
  relative viability: 0.576
[22]; first compound 0.253 µM
  relative viability: 0.725
[22]; first compound 0.8 µM
  relative viability: 0.756
[22]; first compound 2.53 µM
  relative viability: 0.735
[22]; first compound 8 µM
  relative viability: 0.704
